# Experimental data published in ChEMBL document CHEMBL4765425, “Synthesis of 1,3,4-oxadiazole derivatives with anticonvulsant activity and their binding to the GABA receptor” (Eur J Med Chem, 2020).
# Activity calls are given as the source filed them. The rule behind the calls is not given here.
# How the values were obtained:
# Mus musculus [1] = experiment: Anticonvulsant activity in Kunming mouse assessed as reduction in ScPTZ-induced seizure at 300 mg/kg, ip measured after 30 mins; type: functional, organism-based
# Mus musculus [2] = experiment: Anticonvulsant activity in Kunming mouse assessed as reduction in MES-induced seizure at 300 mg/kg, ip measured after 30 mins; type: functional, organism-based
# [3] = Neurotoxicity in Kunming mouse at 100 mg/kg, ip measured after 30 mins by rotarod test; type: toxicity, organism-based; conditions: in vivo, 0.5 h
# [4] = Neurotoxicity in Kunming mouse at 300 mg/kg, ip measured after 30 mins by rotarod test; type: toxicity, organism-based; conditions: in vivo, 0.5 h
# [5] = Protection index, ratio of TD50 for neurotoxicity in ip dosed Kunming mouse to ED50 for anticonvulsant activity in ip dosed MES-induced Kunming mouse; type: toxicity, organism-based; conditions: in vivo, read-out: TI
# [6] = Displacement of [3H]flunitrazepam from GABA-A receptor benzodiazepine site in mouse cerebellum synaptosomal membrane; type: subcellular, Synaptosome
# Mus musculus [7] = experiment: Anticonvulsant activity in ip dosed Kunming mouse assessed as reduction in MES-induced seizure measured after 30 mins; type: functional; conditions: 0.5 h
# [8] = Neurotoxicity in ip dosed Kunming mouse measured after 30 mins by rotarod test; type: toxicity, organism-based; conditions: in vivo
# Mus musculus [9] = experiment: Anticonvulsant activity in Kunming mouse assessed as reduction in ScPTZ-induced seizure at 100 mg/kg, ip measured after 30 mins; type: functional, organism-based
# [10] = Protection index, ratio of TD50 for neurotoxicity in ip dosed Kunming mouse to ED50 for anticonvulsant activity in ip dosed ScPTZ-induced Kunming mouse; type: toxicity, organism-based; conditions: in vivo, read-out: TI
# Mus musculus [11] = experiment: Anticonvulsant activity in ip dosed Kunming mouse assessed as reduction in ScPTZ-induced seizure measured after 30 mins; type: functional; conditions: 0.5 h
# Mus musculus [12] = experiment: Anticonvulsant activity in Kunming mouse assessed as reduction in MES-induced seizure at 100 mg/kg, ip measured after 30 mins; type: functional, organism-based
# Rattus norvegicus = experiment: Anxiolytic activity in Wistar rat assessed as increase in time spent in open sided arms at 1 mg/kg, ip measured for 5 mins by elevated plus maze test; type: functional, organism-based
# Mus musculus [13] = experiment: Anticonvulsant activity in Kunming mouse assessed as reduction in MES-induced seizure at 2 mg/kg, ip measured after 30 mins; type: functional, organism-based
# Mus musculus [14] = experiment: Anticonvulsant activity in Kunming mouse assessed as reduction in MES-induced seizure at 30 mg/kg, ip measured after 30 mins; type: functional, organism-based
# Mus musculus [15] = experiment: Anticonvulsant activity in Kunming mouse assessed as reduction in ScPTZ-induced seizure at 30 mg/kg, ip measured after 30 mins; type: functional, organism-based
Structure (SMILES),Activity (Mus musculus [1]),Activity (Mus musculus [2]),Activity [3],Activity [4],Activity (Mus musculus [9]),Activity (Mus musculus [12]),other results
O=C1CCc2cc(OCc3nnc(SCc4ccccc4C(F)(F)F)o3)ccc2N1,Active,Active,Non-Toxic,Non-Toxic,–,–,–
CC(=O)Nc1ccc(OCc2nnc(SCc3ccccc3)o2)cc1,–,–,Non-Toxic,Non-Toxic,–,–,–
CCCCCSc1nnc(COc2ccc(NC(C)=O)cc2)o1,–,–,Non-Toxic,Non-Toxic,Active,Active,selectivity ratio [5]: 17.2; IC50 [6]: 1.29 µM; ED50 (Mus musculus [7]): 22.6 mg/kg; TD50 at 0.5 h [8]: 389 mg/kg; selectivity ratio [10]: 13.8; ED50 (Mus musculus [11]): 28.1 mg/kg
CC(=O)Nc1ccc(OCc2nnc(SCc3cccc(C)c3)o2)cc1,–,–,Non-Toxic,Non-Toxic,–,–,–
CCCCCCSc1nnc(COc2ccc(NC(C)=O)cc2)o1,–,–,Non-Toxic,Non-Toxic,Active,Active,selectivity ratio [5]: 20.1; IC50 [6]: 4.12 µM; ED50 (Mus musculus [7]): 20.9 mg/kg; TD50 at 0.5 h [8]: 420 mg/kg; selectivity ratio [10]: 15.6; ED50 (Mus musculus [11]): 26.8 mg/kg
O=C1CCc2cc(OCc3nnc(SCc4ccc(Cl)cc4)o3)ccc2N1,–,–,Non-Toxic,Non-Toxic,inactive,–,–
CN1C(=O)CN=C(c2ccccc2)c2cc(Cl)ccc21 [DIAZEPAM],–,–,–,–,–,–,IC50 [6]: 0.042 µM; Activity (Rattus norvegicus): Active; Activity (Mus musculus [13]): Active
CCCCSc1nnc(COc2ccc3c(c2)CCC(=O)N3)o1,Active,Active,Non-Toxic,Non-Toxic,–,–,–
CCCCSc1nnc(COc2ccc(NC(C)=O)cc2)o1,–,–,Non-Toxic,Non-Toxic,–,–,Activity (Mus musculus [14]): inactive
O=C1CCc2cc(OCc3nnc(SCc4ccccc4Cl)o3)ccc2N1,–,Active,Non-Toxic,Non-Toxic,inactive,–,–
CCC1(C)CC(=O)NC1=O (stereo unspecified) [ETHOSUXIMIDE],–,–,Non-Toxic,–,–,–,TD50 at 0.5 h [8]: 343 mg/kg; selectivity ratio [10]: 3.2; ED50 (Mus musculus [11]): 106 mg/kg
CCCCCCCCSc1nnc(COc2ccc(NC(C)=O)cc2)o1,–,–,Non-Toxic,Non-Toxic,–,–,Activity (Mus musculus [14]): inactive
CCCCCCCCCSc1nnc(COc2ccc3c(c2)CCC(=O)N3)o1,–,Active,Non-Toxic,Non-Toxic,inactive,–,–
O=C1CCc2cc(OCc3nnc(SCc4ccc(C(F)(F)F)cc4)o3)ccc2N1,–,–,Non-Toxic,Non-Toxic,Active,Active,selectivity ratio [5]: 16.2; IC50 [6]: 5.28 µM; ED50 (Mus musculus [7]): 23.1 mg/kg; TD50 at 0.5 h [8]: 376 mg/kg; selectivity ratio [10]: 13.6; ED50 (Mus musculus [11]): 27.6 mg/kg
CC(=O)Nc1ccc(OCc2nnc(SCc3ccc(C)cc3)o2)cc1,Active,Active,Non-Toxic,Non-Toxic,–,–,–
Cc1ccc(CSc2nnc(COc3ccc4c(c3)CCC(=O)N4)o2)cc1,–,Active,Non-Toxic,Non-Toxic,–,Active,–
CCCCCCCCCSc1nnc(COc2ccc(NC(C)=O)cc2)o1,–,–,Non-Toxic,Non-Toxic,inactive,inactive,–
CCCCCCCSc1nnc(COc2ccc3c(c2)CCC(=O)N3)o1,–,Active,Non-Toxic,Non-Toxic,–,–,–
CC(=O)Nc1ccc(OCc2nnc(SCc3cccc(Cl)c3)o2)cc1,–,–,Non-Toxic,Non-Toxic,inactive,inactive,–
Cc1cccc(CSc2nnc(COc3ccc4c(c3)CCC(=O)N4)o2)c1,Active,Active,Non-Toxic,Non-Toxic,–,–,–
CC(=O)Nc1ccc(OCc2nnc(SCc3ccccc3F)o2)cc1,Active,Active,Non-Toxic,Non-Toxic,–,–,Activity (Mus musculus [15]): inactive
CCCCCCCCSc1nnc(COc2ccc3c(c2)CCC(=O)N3)o1,–,Active,Non-Toxic,Non-Toxic,–,–,Activity (Mus musculus [14]): inactive

Structure (SMILES),Activity (Mus musculus [1]),Activity (Mus musculus [2]),Activity [3],Activity [4],Activity (Mus musculus [9]),Activity (Mus musculus [12]),other results
CC(=O)Nc1ccc(OCc2nnc(SCc3ccccc3C(F)(F)F)o2)cc1,–,–,Non-Toxic,Non-Toxic,–,–,–
CCCCCCSc1nnc(COc2ccc(-n3cnnc3)cc2)o1,–,–,Non-Toxic,Non-Toxic,Active,Active,selectivity ratio [5]: 14.4; IC50 [6]: 9.31 µM; ED50 (Mus musculus [7]): 26.6 mg/kg; TD50 at 0.5 h [8]: 385 mg/kg; selectivity ratio [10]: 13.5; ED50 (Mus musculus [11]): 28.4 mg/kg
O=C1CCc2cc(OCc3nnc(SCc4cccc(C(F)(F)F)c4)o3)ccc2N1,Active,Active,Non-Toxic,Non-Toxic,–,–,–
CCCCCCSc1nnc(COc2ccc3c(c2)CCC(=O)N3)o1,–,–,Non-Toxic,Non-Toxic,Active,Active,Activity (Mus musculus [14]): Active; selectivity ratio [5]: 44.7; IC50 [6]: 0.88 µM; ED50 (Mus musculus [7]): 10.4 mg/kg; TD50 at 0.5 h [8]: 466 mg/kg; selectivity ratio [10]: 26; ED50 (Mus musculus [11]): 17.9 mg/kg
CCCCCCCSc1nnc(COc2ccc(NC(C)=O)cc2)o1,–,–,Non-Toxic,Non-Toxic,–,–,–
CC(=O)Nc1ccc(OCc2nnc(SCc3ccccc3C)o2)cc1,Active,Active,Non-Toxic,Non-Toxic,–,–,–
O=C1CCc2cc(OCc3nnc(SCc4ccc(F)cc4)o3)ccc2N1,Active,–,Non-Toxic,Non-Toxic,–,inactive,–
O=C1CCc2cc(OCc3nnc(SCc4ccccc4F)o3)ccc2N1,Active,Active,Non-Toxic,Non-Toxic,–,–,–
Cc1ccccc1CSc1nnc(COc2ccc3c(c2)CCC(=O)N3)o1,Active,Active,Non-Toxic,Non-Toxic,–,–,–
CCCCSc1nnc(COc2ccc(-n3cnnc3)cc2)o1,–,Active,Non-Toxic,Non-Toxic,–,–,–
CC(=O)Nc1ccc(OCc2nnc(SCc3ccc(Cl)cc3)o2)cc1,–,–,Non-Toxic,Non-Toxic,inactive,inactive,–
CC(=O)Nc1ccc(OCc2nnc(SCc3ccccc3Cl)o2)cc1,Active,Active,Non-Toxic,Non-Toxic,–,–,–
CC(=O)Nc1ccc(OCc2nnc(SCc3cccc(F)c3)o2)cc1,–,–,Non-Toxic,Non-Toxic,inactive,inactive,–
O=C1CCc2cc(OCc3nnc(SCc4cccc(F)c4)o3)ccc2N1,–,–,Non-Toxic,Non-Toxic,–,–,–
O=C1CCc2cc(OCc3nnc(SCc4cccc(Cl)c4)o3)ccc2N1,Active,Active,Non-Toxic,Non-Toxic,–,–,–
CC(=O)Nc1ccc(OCc2nnc(SCc3cccc(C(F)(F)F)c3)o2)cc1,Active,Active,Non-Toxic,Non-Toxic,–,–,–
CC(=O)Nc1ccc(OCc2nnc(SCc3ccc(F)cc3)o2)cc1,Active,Active,Non-Toxic,Non-Toxic,–,–,–
CC(=O)Nc1ccc(OCc2nnc(SCc3ccc(C(F)(F)F)cc3)o2)cc1,–,–,Non-Toxic,Non-Toxic,Active,Active,–
CCCCCSc1nnc(COc2ccc(-n3cnnc3)cc2)o1,–,–,Non-Toxic,Non-Toxic,Active,Active,Activity (Mus musculus [14]): Active; selectivity ratio [5]: 22.5; IC50 [6]: 3.43 µM; ED50 (Mus musculus [7]): 18.7 mg/kg; TD50 at 0.5 h [8]: 421 mg/kg; selectivity ratio [10]: 15.1; ED50 (Mus musculus [11]): 27.9 mg/kg
O=C1CCc2cc(OCc3nnc(SCc4ccccc4)o3)ccc2N1,–,Active,Non-Toxic,Non-Toxic,–,–,–
CCCCCCCSc1nnc(COc2ccc(-n3cnnc3)cc2)o1,Active,Active,Non-Toxic,Non-Toxic,–,–,Activity (Mus musculus [14]): inactive; Activity (Mus musculus [15]): inactive
